Results from US7932389B2, “Octahydropyrrolo[2,3C]pyridine derivatives and pharmaceutical use thereof” (Merck Serono S.A., priority 2004, dated 2011).
pIC50: −log10 of the molar value.

Legend:
[1] = molecular target: T1, MMP-2 (Homo sapiens, UniProt P08253); experiment: MMP-2 enzyme inhibition assay, coumarin-labelled peptide substrate McaPLGLDpaAR; format: biochemical
T1 sequence (P08253 110-660): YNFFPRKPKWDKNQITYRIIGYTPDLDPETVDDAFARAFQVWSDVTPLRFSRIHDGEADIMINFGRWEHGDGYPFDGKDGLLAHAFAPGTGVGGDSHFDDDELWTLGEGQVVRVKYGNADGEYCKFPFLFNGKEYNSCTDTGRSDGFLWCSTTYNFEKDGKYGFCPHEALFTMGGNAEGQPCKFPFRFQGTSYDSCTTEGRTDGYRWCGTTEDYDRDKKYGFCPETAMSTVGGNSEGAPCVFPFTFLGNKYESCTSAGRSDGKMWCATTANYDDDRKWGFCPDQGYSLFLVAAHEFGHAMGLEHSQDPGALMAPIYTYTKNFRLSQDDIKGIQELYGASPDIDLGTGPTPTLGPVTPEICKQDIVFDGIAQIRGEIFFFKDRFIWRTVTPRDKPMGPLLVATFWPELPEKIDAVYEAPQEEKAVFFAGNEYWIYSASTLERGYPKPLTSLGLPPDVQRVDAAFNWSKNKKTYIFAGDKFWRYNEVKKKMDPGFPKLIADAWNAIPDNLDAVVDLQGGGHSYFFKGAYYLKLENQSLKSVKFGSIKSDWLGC
Protocol: (§1) Compounds of the invention were tested to assess their activities as inhibitors of MMP-1, MMP-2, MMP-9, MMP-14 and MMP-12.
(§2) Stock solutions were made up as follows: Assay Butter: 100 mM Tris-HCl pH 7.6 containing 100 mM NaCl, 10 mM CaCl2, and 0.05% Brij 35.
(§3) Substrate: 0.4 mM McaPLGLDpaAR (from Bachem) (0.437 mg/ml) stock solution in 100% DMSO (stored at −20° C.). Dilute to 8 μM in assay butter.
(§4) Test Compounds were prepared initially as 10 mM compound solution in 100% DMSO, diluted to 1 mM in 100% DMSO, then serially diluted 3-fold in 100% DMSO across columns 1-10 of a 96-well microtitre plate Assay concentration range, 100 μM (column 1) to 5.1 nM (column 10).
(§5) The assay was performed in a total volume of 100 μL per well in 96-well microtitre plates. Activated enzyme (20 μL) was added to the wells followed by 20 μL of assay butter. Appropriate concentrations of test compounds dissolved in 10 μL of DMSO were then added followed by 50 μL of McaPLGLDpaAR (8 μM, prepared by dilution of DMSO stock in assay butter). For each as say ten concentrations of test compound were examined in duplicate. Control wells lack either enzyme or test compound. The reactions were incubated at 37° C. for 2 hours. The fluorescence at 405 nm was measured immediately with an SLT Fluostar fluorometer (SLT Labinstruments GmbH, Grödig, Austria) using 320 nm excitation, without stopping the reaction.
(§6) The effect of the test compound was determined from the dose response curve generated by the 10 duplicate concentrations of inhibitor. The IC50 (the concentration of compound required to give a 50% decrease in enzyme activity) was obtained by fitting data to the equation, Y=a+((b−a)/(1+(c/X)^d)). (Y=inhibition achieved for a particular dose; X=the dose in nM; a=minimum y or zero % inhibition; b=maximum y or 100% inhibition; c=is the IC50; d=is the slope). The result was rounded to one significant figure.
Compounds of the invention were tested for inhibitory activity against collagenase (MMP-2) in an assay using a coumarin-labelled peptide substrate, (7-methoxycoumarin-4-yl)acetyl-Pro-Leu-Gly-Leu-(3-[2,4-dinitrophenyl]-L-2,3diaminopropionyl)-Ala-Arg-NH2 (Mca PLGLDpaAR) (Knight et al, 1992, above). The protocol for this assay was as described for the MMP-9 assay above.

[2] = molecular target: Recombinant human 92 kDa gelatinase (MMP-9) (Homo sapiens, UniProt P14780); experiment: MMP-9 enzyme inhibition assay, coumarin-labeled peptide substrate McaPLGLDpaAR; format: biochemical
Recombinant human 92 kDa gelatinase (MMP-9), sequence (P14780 107-707 limits assumed): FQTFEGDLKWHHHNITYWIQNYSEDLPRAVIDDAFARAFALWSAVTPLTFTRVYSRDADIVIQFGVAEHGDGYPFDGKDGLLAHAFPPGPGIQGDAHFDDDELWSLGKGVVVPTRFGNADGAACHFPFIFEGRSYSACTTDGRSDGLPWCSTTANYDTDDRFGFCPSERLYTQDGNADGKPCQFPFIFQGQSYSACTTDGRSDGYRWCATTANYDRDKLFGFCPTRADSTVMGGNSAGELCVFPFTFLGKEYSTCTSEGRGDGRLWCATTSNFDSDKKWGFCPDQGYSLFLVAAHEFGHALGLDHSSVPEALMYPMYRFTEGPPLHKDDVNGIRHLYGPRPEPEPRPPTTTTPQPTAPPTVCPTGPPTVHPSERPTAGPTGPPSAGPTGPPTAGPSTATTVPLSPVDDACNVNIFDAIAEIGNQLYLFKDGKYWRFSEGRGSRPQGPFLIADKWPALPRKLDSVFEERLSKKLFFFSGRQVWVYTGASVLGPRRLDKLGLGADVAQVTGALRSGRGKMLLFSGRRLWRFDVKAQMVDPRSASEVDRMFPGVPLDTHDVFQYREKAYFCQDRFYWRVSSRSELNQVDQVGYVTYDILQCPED
Protocol: as §1
Compounds of the invention were tested for inhibitory activity against 92 kDa gelatinase (MMP-9) in an assay using a coumarin-labeled peptide substrate, (7-methoxycoumarin-4-yl)acetyl-Pro-Leu-Gly-Leu-(3-[2,4-dinitrophenyl]-L-2,3diaminopropionyl)-Ala-Arg-NH2 (McaPLGLDpaAR) (Knight et al, FEBS Lett. 1992; 263-266).
as §2, §3
Enzyme: Recombinant human 92 kDa gelatinase (MMP-9; APMA (4-aminophenyl mercuric acetate)-activated if necessary) appropriately diluted in assay butter.
as §4, §5, §6

[3] = molecular target: metalloelastase (MMP-12) (Homo sapiens, UniProt P39900); experiment: MMP-12 enzyme inhibition assay, coumarin-labelled peptide substrate McaPLGLDpaAR; format: biochemical
metalloelastase (MMP-12), sequence (P39900 106-470): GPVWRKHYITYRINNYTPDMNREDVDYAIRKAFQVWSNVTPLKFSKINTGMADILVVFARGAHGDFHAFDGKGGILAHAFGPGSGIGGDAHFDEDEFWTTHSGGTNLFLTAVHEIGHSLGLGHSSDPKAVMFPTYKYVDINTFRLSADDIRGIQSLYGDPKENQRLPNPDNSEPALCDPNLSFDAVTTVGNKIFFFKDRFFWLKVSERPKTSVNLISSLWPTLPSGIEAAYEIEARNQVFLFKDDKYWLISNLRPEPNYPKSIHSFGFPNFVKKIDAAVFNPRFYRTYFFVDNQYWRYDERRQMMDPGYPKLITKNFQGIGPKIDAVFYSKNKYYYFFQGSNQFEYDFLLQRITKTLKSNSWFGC
Protocol: as §1, §2, §3, §4, §5, §6
Compounds of the invention were tested for inhibitory activity against metalloelastase (MMP-12) in an assay using a coumarin-labelled peptide substrate, (7-methoxycoumarin-4-yl)acetyl-Pro-Leu-Gly-Leu-(3-[2,4dinitrophenyl]-L-2,3-diaminopropionyl)-Ala-Arg-NH2 (McaPLGLDpaAR) (Knight et al, 1992, above). The protocol for this assay was as described for the MMP-9 assay above.

[4] = tested on: IL-2-induced peritoneal recruitment of lymphocytes; experiment: IL-2-induced peritoneal recruitment of lymphocytes; format: in vivo, C3H/HEN mice; settings: subcutaneous, 15 min prior to IL-2, cells collected 24 h after IL-2, mice
Protocol: Administration of IL-2 intraperitoneally causes migration of lymphocytes into the intraperitoneal cavity. This is a model for the cellular migration that occurs during inflammation.
C3H/HEN mice (Elevage Janvier, France) were intraperitoneally injected with IL-2 (Serono Pharmaceutical Research Institute, 20 μg/kg, in saline).
Compounds of the invention were suspended in 0.5% carboxymethylcellulose (CMC)/0.25% tween-20 and were administered by s.c. or p.o. route (10 ml/kg) 15 min prior to administration of IL-2.
Twenty-four hours after administration of IL-2, peritoneal white blood cells were collected by 3 successive lavages of the peritoneal cavity with 5 ml phosphate buffered saline (PBS)-1 mM EDTA (+4° C.). The suspension was centrifuged (1700 g×10 min at +4° C.). The resulting pellet was suspended in 1 ml PBS-1 mM EDTA.
Lymphocytes were identified and counted using a Beckman/Coulter counter.
The animals were divided into 6 groups (6 mice each group):
Group 1: (baseline) received 0.5% CMC/0.25% tween-20 (vehicle of compound of the invention) and saline (vehicle of IL-2);
Group 2: (control IL-2) received 0.5% CMC/0.25% tween-20 and injection of IL-2;
Group 3: Experimental group (Compound of the invention Dose 1) received a compound of the invention and injection of IL-2; […]
Inhibition of lymphocyte recruitment was calculated as follows: […]

SMILES | pIC50 [1] | pIC50 [2] | pIC50 [3] | % inhibition of IL-2-induced peritoneal recruitment of lymphocytes ([4]; 10 mg/kg) [%] | % inhibition of IL-2-induced peritoneal recruitment of lymphocytes ([4]; 3 mg/kg) [%]
COc1ccc(S(=O)(=O)N2[C@H](C(=O)NO)C[C@@H]3CCN(C(=O)OCc4ccccc4)C[C@@H]32)cc1 (relative stereo) [Example 18, benzyl rel-(2S,3aS,7aR)-2-[(hydroxyamino)carbonyl]-1-[(4-methoxyphenyl)sulfonyl]octahydro-6H-pyrrolo[2,3-c]pyridine-6-carboxylate] | 6.31 | 6.17 | 6.40 | – | –
CCN(CC)C(=O)CN1CC[C@H]2C[C@@H](C(=O)NO)N(S(=O)(=O)c3ccc(OC)cc3)[C@H]2C1 (relative stereo) [Example 14, rel-(2S,3aS,7aR)-6-[2-(diethylamino)-2-oxoethyl]-N-hydroxy-1-[(4-methoxyphenyl)sulfonyl]octahydro-1H-pyrrolo[2,3-c]pyridine-2-carboxamide] | 5.92 | 5.82 | 6.03 | – | –
COCCOC(=O)N1CC[C@H]2C[C@@H](C(=O)NO)N(S(=O)(=O)c3ccc(OC)cc3)[C@H]2C1 (relative stereo) [Example 5, 2-methoxyethyl rel-(2S,3aS,7aR)-2-[(hydroxyamino)carbonyl]-1-[(4-methoxyphenyl)sulfonyl]octahydro-6H-pyrrolo[2,3-c]pyridine-6-carboxylate] | 6.07 | 5.82 | 6.01 | – | –
COc1ccc(S(=O)(=O)N2[C@H](C(=O)NO)C[C@@H]3CCN(C(=O)C4CCCC4)C[C@@H]32)cc1 (relative stereo) [Example 7, rel-2S,3aS,7aR)-6-cyclopentylcarbonyl)-N-hydroxy-1-[(4-methoxyphenyl)sulfonyl]octahydro-1H-pyrrolo[2,3-c]pyridine-2-carboxamide] | 6.10 | 5.96 | 6.21 | – | –
COc1ccc(S(=O)(=O)N2[C@H](C(=O)NO)C[C@@H]3CCN(C(=O)c4ccccc4)C[C@@H]32)cc1 (relative stereo) [Example 1, rel-(2S,3aS,7aR)-6-benzoyl-N-hydroxy-1-[(4-methoxyphenyl)sulfonyl]octahydro-1H-pyrrolo[2,3-c]pyridine-2-carboxamide] | 5.68 | 5.77 | 5.96 | – | –
COc1ccc(S(=O)(=O)N2CC[C@H]3C[C@@H](C(=O)NO)N(S(=O)(=O)c4ccc(OC)cc4)[C@H]3C2)cc1 (relative stereo) [Example 10, rel-(2S,3aS,7aR)—N-hydroxy-1,6-bis[(4-methoxyphenyl)sulfonyl]octahydro-1H-pyrrolo[2,3-c]pyridine-2-carboxamide] | 5.80 | 5.74 | 6.02 | – | –
COc1ccc(S(=O)(=O)N2[C@H](C(=O)NO)C[C@@H]3CCN(C(=O)c4ccc(-c5ccccc5)cc4)C[C@@H]32)cc1 (relative stereo) [Example 12, rel-(2S,3aS,7aR)-6-(biphenyl-4-ylcarbonyl)-N-hydroxy-1-[(4-methoxyphenyl)sulfonyl]octahydro-1H-pyrrolo[2,3-c]pyridine-2-carboxamide] | 5.77 | 5.80 | 5.92 | – | –
COc1ccc(S(=O)(=O)N2[C@H](C(=O)NO)C[C@@H]3CCN(C(=O)CCC4CCCC4)C[C@@H]32)cc1 (relative stereo) [Example 4, rel-2S,3aS,7aR)-6-(3-cyclopentylpropanoyl)-N-hydroxy-1-[(4-methoxyphenyl)sulfonyl]octahydro-1H-pyrrolo[2,3-c]pyridine-2-carboxamide] | 6.19 | 6.11 | 6.19 | – | –

Stronger by pIC50 [1], values ahead:

pIC50 [1] | pIC50 [2] | pIC50 [3] | SMILES | % inhibition of IL-2-induced peritoneal recruitment of lymphocytes ([4]; 10 mg/kg) [%] | % inhibition of IL-2-induced peritoneal recruitment of lymphocytes ([4]; 3 mg/kg) [%]
6.43 | 6.06 | 7.10 | CS(=O)(=O)N1CC[C@H]2C[C@@H](C(=O)NO)N(S(=O)(=O)c3ccc(Oc4ccncc4)cc3)[C@H]2C1 (relative stereo) [Example 11, rel-(2S,3aS,7aR)—N-hydroxy-6-(methylsulfonyl)-1-{[4-(pyridin-4-yloxy)phenyl]sulfonyl}octahydro-1H-pyrrolo[2,3-c]pyridine-2-carboxamide] | 38 | –
6.49 | 6.37 | 6.47 | COc1ccc(S(=O)(=O)N2[C@H](C(=O)NO)C[C@@H]3CCN(C(=O)Nc4ccccc4)C[C@@H]32)cc1 (relative stereo) [Example 16, rel-(2S,3aS,7aR)—N^2-hydroxy-1-[(4-methoxyphenyl)sulfonyl]-N^6-phenyloctahydro-6H-pyrrolo[2,3-c]pyridine-2,6-dicarboxamide] | – | –
7.02 | 6.82 | 6.89 | COc1ccc(S(=O)(=O)N2[C@H](C(=O)NO)C[C@@H]3CCN(C(C)=O)C[C@@H]32)cc1 (relative stereo) [Example 2, rel-(2S,3aS,7aR)-6-acetyl-N-hydroxy-1-[(4-methoxyphenyl)sulfonyl]octahydro-1H-pyrrolo[2,3-c]pyridine-2-carboxamide] | – | –
7.30 | 7.39 | 7.30 | COc1ccc(S(=O)(=O)N2[C@H](C(=O)NO)C[C@@H]3CCN(C(=O)CCc4ccccc4)C[C@@H]32)cc1 (relative stereo) [Example 8, rel-(2S,3aS,7aR)—N-hydroxy-1-[(4-methoxyphenyl)sulfonyl]-6-(3-phenylpropanoyl)octahydro-1H-pyrrolo[2,3-c]pyridine-2-carboxamide] | – | 33
